Values of other authors as cited in PubChem BioAssay AID1259409 (Chemical Carcinogenesis Research Information System (CCRIS), 2018).

System: rodent chemically induced tumor inhibition, incidence and multiplicity
Experiment: CCRIS tumor inhibitor studies

SMILES	tumour outcome (control, treated, inhibition, significance) (Carcinogen: 7,12-DIMETHYLBENZ[A]ANTHRACENE [57-97-6], Dose [Inhibitor]: 0.25 MG/KG BW/D FOR 4 WK BEGINNING 4 WK PRIOR TO FIRST CARCINOGEN DOSE (STUDY DURATION: 32 WK), Route [Inhibitor]: INTRAPERITONEAL, Species: RAT, Strain/Sex: SPRAGUE-DAWLEY/FEMALE, Target Tissue: Type of Lesion: MAMMARY GLAND: TUMOR, Dose [Carcinogen]: 10 MG IN 1 ML PEANUT OIL ONCE (STUDY DURATION: 32 WK), Promoter: NONE)	tumour outcome (control, treated, inhibition, significance) (Carcinogen: 7,12-DIMETHYLBENZ[A]ANTHRACENE [57-97-6], Dose [Inhibitor]: 0.25 MG/KG BW/D FOR 4 WK BEGINNING 4 WK PRIOR TO FIRST CARCINOGEN DOSE, FOLLOWED BY 0.25 MG/KG BW/D FOR 27 WK POST LAST, Route [Inhibitor]: INTRAPERITONEAL, Species: RAT, Strain/Sex: SPRAGUE-DAWLEY/FEMALE, Target Tissue: Type of Lesion: MAMMARY GLAND: TUMOR, Dose [Carcinogen]: 10 MG IN 1 ML PEANUT OIL ONCE (STUDY DURATION: 32 WK), Promoter: NONE)	tumour outcome (control, treated, inhibition, significance) (Carcinogen: 7,12-DIMETHYLBENZ[A]ANTHRACENE [57-97-6], Dose [Inhibitor]: 0.25 MG/KG BW/D FOR 27 WK BEGINNING 4 D POST LAST CARCINOGEN DOSE (STUDY DURATION: 32 WK), Route [Inhibitor]: INTRAPERITONEAL, Species: RAT, Strain/Sex: SPRAGUE-DAWLEY/FEMALE, Target Tissue: Type of Lesion: MAMMARY GLAND: TUMOR, Dose [Carcinogen]: 10 MG IN 1 ML PEANUT OIL ONCE (STUDY DURATION: 32 WK), Promoter: NONE)	tumour outcome (control, treated, inhibition, significance) (Carcinogen: 7,12-DIMETHYLBENZ[A]ANTHRACENE [57-97-6], Dose [Inhibitor]: 2.5 MG/KG BW/D FOR 4 WK BEGINNING 4 WK PRIOR TO FIRST CARCINOGEN DOSE (STUDY DURATION: 32 WK), Route [Inhibitor]: INTRAPERITONEAL, Species: RAT, Strain/Sex: SPRAGUE-DAWLEY/FEMALE, Target Tissue: Type of Lesion: MAMMARY GLAND: TUMOR, Dose [Carcinogen]: 10 MG IN 1 ML PEANUT OIL ONCE (STUDY DURATION: 32 WK), Promoter: NONE)	tumour outcome (control, treated, inhibition, significance) (Carcinogen: 7,12-DIMETHYLBENZ[A]ANTHRACENE [57-97-6], Dose [Inhibitor]: 2.5 MG/KG BW/D FOR 4 WK BEGINNING 4 WK PRIOR TO FIRST CARCINOGEN DOSE, FOLLOWED BY 2.5 MG/KG BW/D FOR 27 WK POST LAST CA, Route [Inhibitor]: INTRAPERITONEAL, Species: RAT, Strain/Sex: SPRAGUE-DAWLEY/FEMALE, Target Tissue: Type of Lesion: MAMMARY GLAND: TUMOR, Dose [Carcinogen]: 10 MG IN 1 ML PEANUT OIL ONCE (STUDY DURATION: 32 WK), Promoter: NONE)	tumour outcome (control, treated, inhibition, significance) (Carcinogen: 7,12-DIMETHYLBENZ[A]ANTHRACENE [57-97-6], Dose [Inhibitor]: 2.5 MG/KG BW/D FOR 27 WK BEGINNING 4 D POST LAST CARCINOGEN DOSE (STUDY DURATION: 32 WK), Route [Inhibitor]: INTRAPERITONEAL, Species: RAT, Strain/Sex: SPRAGUE-DAWLEY/FEMALE, Target Tissue: Type of Lesion: MAMMARY GLAND: TUMOR, Dose [Carcinogen]: 10 MG IN 1 ML PEANUT OIL ONCE (STUDY DURATION: 32 WK), Promoter: NONE)	tumour outcome (control, treated, inhibition, significance) (Carcinogen: BENZO[A]PYRENE, 50-32-8, Dose [Inhibitor]: 0, 3.8 UMOL/G DIET BEGINNING 1 WK PRIOR TO CARCINOGEN TREATMENT AND CONTINUING FOR 1 WK POST CARCINOGEN TREATMENT FOLLOW, Route [Inhibitor]: ORAL, Species: MOUSE, Strain/Sex: CD-1/FEMALE, Target Tissue: Type of Lesion: FORESTOMACH: PAPILLOMA, Dose [Carcinogen]: 1 MG IN 0.2 ML CORN OIL 2/WK FOR 4 WK, Promoter: NONE USED)
C#CCN(C)[C@H](C)Cc1ccccc1	13/15 (87%), 8/15 (53%), 39%, not significant	13/15 (87%), 9/15 (60%), 31%, not significant	13/15 (87%), 10/15 (67%), 23%, not significant	13/15 (87%), 8/15 (53%), 39%, not significant	13/15 (87%), 5/15 (33%), 62%, p<0.0001	13/15 (87%), 6/15 (40%), 54%, p<0.0001	–
c1ccc2c(c1)Nc1ccccc1[Se]2	–	–	–	–	–	–	85%, 95%, -12%, not significant
